Like-named read-outs stand apart in the source and are kept apart here.
How the values were obtained:
[1] = tested on: HAP1 MTAP-deleted cell line; experiment: SDMA in-cell western assay, HAP1 MTAP-deleted; type: cell-based; details: for IC50: Homo sapiens; for MTAP intact/deleted ratio: SDMA in-cell western
Summary of the method: (§1)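 IC50 values come from SDMA signal quantified by in-cell western in two HAP1 lines, one with native MTAP levels and one lacking MTAP.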

[2] = target: T1, PRMT5 (Homo sapiens, UniProt O14744); experiment: PRMT5 biochemical IC50 assay with no cofactor; details: PRMT5, no cofactor
T1 construct: purchased Viva (custom protein)
T1 sequence (O14744 whole entry): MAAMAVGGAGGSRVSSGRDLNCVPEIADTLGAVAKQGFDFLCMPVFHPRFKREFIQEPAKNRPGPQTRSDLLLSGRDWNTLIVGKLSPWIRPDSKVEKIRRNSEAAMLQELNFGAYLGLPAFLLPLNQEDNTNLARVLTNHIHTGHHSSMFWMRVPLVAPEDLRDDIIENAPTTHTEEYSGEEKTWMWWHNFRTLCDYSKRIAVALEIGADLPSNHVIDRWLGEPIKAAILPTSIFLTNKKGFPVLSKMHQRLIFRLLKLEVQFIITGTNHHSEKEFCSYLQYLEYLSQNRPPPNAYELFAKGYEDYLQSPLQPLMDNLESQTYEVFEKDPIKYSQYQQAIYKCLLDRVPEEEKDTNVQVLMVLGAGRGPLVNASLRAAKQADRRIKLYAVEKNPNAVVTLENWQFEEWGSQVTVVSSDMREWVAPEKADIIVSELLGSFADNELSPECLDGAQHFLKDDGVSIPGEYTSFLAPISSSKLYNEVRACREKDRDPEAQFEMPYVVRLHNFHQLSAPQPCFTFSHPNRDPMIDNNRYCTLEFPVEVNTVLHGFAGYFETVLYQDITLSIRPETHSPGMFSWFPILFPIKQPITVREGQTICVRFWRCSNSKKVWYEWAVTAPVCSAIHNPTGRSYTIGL
T1 sequence (Q9BQA1 whole entry partner): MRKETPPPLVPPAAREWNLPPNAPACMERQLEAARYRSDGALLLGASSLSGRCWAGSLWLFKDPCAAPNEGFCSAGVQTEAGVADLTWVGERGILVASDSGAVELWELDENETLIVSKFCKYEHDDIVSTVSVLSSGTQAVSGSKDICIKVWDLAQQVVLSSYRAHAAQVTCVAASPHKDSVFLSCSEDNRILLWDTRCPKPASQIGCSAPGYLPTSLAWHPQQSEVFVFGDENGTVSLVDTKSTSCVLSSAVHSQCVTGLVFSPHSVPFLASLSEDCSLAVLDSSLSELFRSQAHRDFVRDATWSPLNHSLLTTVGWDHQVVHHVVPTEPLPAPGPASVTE
Description: Table 1 indicates IC50 values (μM) against PRMT5 for exemplary compounds in the presence of SAM as cofactor, with no cofactor, and with MTA as cofactor, respectively (columns 4-6). […] Ki values can be calculated from the IC50 values as described in the Examples section. As detailed in the Examples section, for the assay performed in the presence of SAM, IC50=Ki×1.5 (Ki=IC50/1.5).

[3] = tested on: HAP1 MTAP-intact cell line; experiment: SDMA in-cell western assay, HAP1 MTAP-intact; type: cell-based; details: Homo sapiens
Summary of the method: as §1

[4] = target: T1, PRMT5; experiment: PRMT5 biochemical IC50 assay with MTA as cofactor
[5] = target: T1, PRMT5; experiment: PRMT5 biochemical IC50 assay with SAM as cofactor
[6] = tested on: HAP1 MTAP-deleted cell line; experiment: Viability assay, MTAP-deleted cell line; type: cell-based; details: Homo sapiens
Description: Table 1 additionally indicates IC50 values in a viability assay for the MTAP-deleted cell line (column 10), indicating the effect of treatment with compound on cell survival.

[7] = HAP1, SDMA in-cell western, HAP1 MTAP-deleted, read-out: HAP 1 MTAP deleted IC50
[8] = IC50 ratio HAP1 MTAP-intact / HAP1 MTAP-deleted
[9] = HAP1, SDMA in-cell western, HAP1 MTAP-intact, read-out: MTAP HAP1 intact IC50
[10] = PRMT5, MTA as cofactor, read-out: MTA IC50
[11] = PRMT5, SAM as cofactor, read-out: SAM IC50
[12] = HAP1, SDMA in-cell western, HAP1 MTAP-deleted, read-out: HAP1 MTAP deleted IC50
[13] = IC50 ratio HAP1 MTAP-intact vs HAP1 MTAP-deleted
[14] = HAP1, read-out: HAP1 MTAP deleted IC50
[15] = HAP1, read-out: MTAP HAP1 intact IC50
[16] = read-out: No Cofactor/ rel IC50
[17] = HAP1, viability, HAP1 MTAP-deleted cell line, read-out: HAP1 MTAP deleted viability
[18] = HAP1, viability assay, MTAP-deleted cell line, read-out: HAP1 MTAP deleted viability

| SMILES | IC50 [1, 7] [nM] | IC50 ([2]; read-out: No Cofactor/rel IC50) [nM] | IC50 [3, 9] [nM] | IC50 [4, 10] [nM] | IC50 [5, 11] [nM] | IC50 [1, 12] [nM] | IC50 [2, 16] [nM] | MTAP intact/deleted ratio [1, 8] | MTAP intact/deleted ratio [1, 13] | IC50 [1, 14] [nM] | IC50 [3, 15] [nM] | IC50 [6, 17] [nM] | IC50 [6, 18] [nM] | IC50 ([6]; HAP1, read-out: HAP1 MTAP deleted viability) [nM] | IC50 ([4]; MTA IC50, PRMT5, MTA as cofactor) [nM] | IC50 ([5]; SAM IC50, PRMT5, SAM as cofactor) [nM] | IC50 ([6]; HAP1, viability IC50, MTAP-deleted cell line, read-out: HAP1 MTAP deleted viability) [nM] |
| --- | --- | --- | --- | --- | --- | --- | --- | --- | --- | --- | --- | --- | --- | --- | --- | --- | --- |
| COc1ncc(NC(=O)C(=O)N2C[C@H](C)CC[C@H]2c2cccs2)cc1C(N)=O (single isomer, unassigned) [Compound 310] | – | > 500 | > 1000 | > 500 | > 500 | > 1000 | – | C (an IC50 ratio of less than 3 fold) | – | – | – | – | – | – | – | – | – |
| COc1ncc(NC(=O)C(=O)N2C[C@@H](C)CC[C@H]2C2CCCCC2)cc1C(N)=O (single isomer, unassigned) [Compound 371] | – | > 500 | > 1000 | > 500 | > 500 | > 1000 | – | C (an IC50 ratio of less than 3 fold) | – | – | – | – | – | – | – | – | – |
| COc1ncc(NC(=O)C(=O)N2C[C@@H](C)CC[C@H]2c2ccccc2)cc1C(N)=O (single isomer, unassigned) [Compound 322] | – | > 500 | – | > 500 | > 500 | – | – | B (an IC50 ratio greater than or equal to 3 fold but lower than 10 fold) | – | > 1000 | > 1000 | – | – | – | – | – | – |
| CNc1cccc([C@H]2CCCCN2C(=O)C(=O)Nc2cncc(C(N)=O)c2)c1 (single isomer, unassigned) [Compound 316] | – | > 500 | > 1000 | 50 to 500 | > 500 | > 1000 | – | C (an IC50 ratio of less than 3 fold) | – | – | – | – | – | – | – | – | – |
| Cc1cncc(NC(=O)C(=O)N2CCCC[C@H]2c2cccc(C)c2)c1 (single isomer, unassigned) [Compound 4] | > 1000 | – | > 1000 | 50 to 500 | > 500 | – | > 500 | C (an IC50 ratio of less than 3 fold) | – | – | – | – | – | – | – | – | – |
| C[C@@H]1CC[C@@H](c2csc3ccccc23)N(C(=O)C(=O)Nc2cncc(C(N)=O)c2)C1 (single isomer, unassigned) [Compound 463] | – | 50 to 500 | > 1000 | < 50 | 50 to 500 | 100 to 1000 | – | A (an IC50 ratio greater than or equal to 10 fold) | – | – | – | – | – | – | – | – | – |
| Cc1cc(NC(=O)C(=O)N2C[C@H](C)CC[C@H]2C23CC(C(N)=O)(C2)C3)cnc1N (single isomer, unassigned) [Compound 1070] | – | > 500 | > 1000 | > 500 | > 500 | > 1000 | – | – | B (an IC50 ratio greater than or equal to 3 fold but lower than 10 fold) | – | – | – | – | – | – | – | – |
| C[C@H]1CC[C@H](c2cc(F)c(F)c(Cl)c2)N(C(=O)C(=O)Nc2cncc(C(N)=O)c2)C1 (single isomer, unassigned) [Compound 846] | – | > 500 | > 1000 | > 500 | > 500 | > 1000 | – | C (an IC50 ratio of less than 3 fold) | – | – | – | – | – | – | – | – | – |
| Cc1cncc(NC(=O)C(=O)N2C[C@@H](C)CC[C@@H]2c2cccc(F)c2)c1 (single isomer, unassigned) [Compound 77] | > 1000 | – | > 1000 | > 500 | – | – | > 500 | C (an IC50 ratio of less than 3 fold) | – | – | – | – | > 10000 | – | – | – | – |
| CCc1cc(NC(=O)C(=O)N2C[C@@H](C)CC[C@@H]2c2ccc3sc(C4(O)CCN(C)CC4)nc3c2)cnc1N [Compound 1107] | – | – | – | – | – | – | – | – | B (an IC50 ratio greater than or equal to 3 fold but lower than 10 fold) | < 100 | < 100 | – | – | < 1000 | < 50 | < 50 | – |
| C[C@@H]1CC[C@@H](c2ccc3c(c2)OCCN3)N(C(=O)C(=O)Nc2cncc(C(N)=O)c2)C1 (single isomer, unassigned) [Compound 605] | > 1000 | > 500 | > 1000 | – | > 500 | – | – | B (an IC50 ratio greater than or equal to 3 fold but lower than 10 fold) | – | – | – | – | – | – | – | – | > 10000 |
| Cc1cc(NC(=O)C(=O)N2C[C@H](C)CC[C@@H]2C2CCNC(=O)C2)cnc1N (mixture of isomers) [Compound 159, N-(6-amino-5-methyl-3-pyridyl)-2-[(2S,5S)-5-methyl-2-(2-oxo-4-piperidyl)-1-piperidyl]-2-oxo-acetamide] | > 1000 | – | > 1000 | – | 50 to 500 | – | 50 to 500 | B (an IC50 ratio greater than or equal to 3 fold but lower than 10 fold) | – | – | – | – | > 10000 | – | – | – | – |
| CO[C@H]1C[C@H](c2ccc3scnc3c2)N(C(=O)C(=O)Nc2cncc(C(N)=O)c2)C[C@H]1C (single isomer, unassigned) [Compound 1221] | – | – | > 1000 | 50 to 500 | > 500 | 100 to 1000 | – | – | A (an IC50 ratio greater than or equal to 10 fold) | – | – | – | 1000 to 10000 | – | – | – | – |

Continued, in another order:

| IC50 [1, 7] [nM] | IC50 ([2]; read-out: No Cofactor/rel IC50) [nM] | IC50 [3, 9] [nM] | IC50 [4, 10] [nM] | IC50 [5, 11] [nM] | IC50 [1, 12] [nM] | IC50 [2, 16] [nM] | SMILES | MTAP intact/deleted ratio [1, 8] | MTAP intact/deleted ratio [1, 13] | IC50 [1, 14] [nM] | IC50 [3, 15] [nM] | IC50 [6, 17] [nM] | IC50 [6, 18] [nM] | IC50 ([6]; HAP1, read-out: HAP1 MTAP deleted viability) [nM] | IC50 ([4]; MTA IC50, PRMT5, MTA as cofactor) [nM] | IC50 ([5]; SAM IC50, PRMT5, SAM as cofactor) [nM] | IC50 ([6]; HAP1, viability IC50, MTAP-deleted cell line, read-out: HAP1 MTAP deleted viability) [nM] |
| --- | --- | --- | --- | --- | --- | --- | --- | --- | --- | --- | --- | --- | --- | --- | --- | --- | --- |
| < 100 | 50 to 500 | > 1000 | < 50 | 50 to 500 | – | – | COc1ncc(NC(=O)C(=O)N2C[C@@H](C)CC[C@@H]2c2ccc3nn(C)cc3c2)cc1C(N)=O (single isomer, unassigned) [Compound 1059] | A (an IC50 ratio greater than or equal to 10 fold) | – | – | – | – | – | – | – | – | – |
| – | > 500 | > 1000 | > 500 | > 500 | > 1000 | – | Cc1cc(NC(=O)C(=O)N2C[C@@H](C)CC[C@@H]2C23CC(C(N)=O)(C2)C3)cnc1N (single isomer, unassigned) [Compound 1061] | – | B (an IC50 ratio greater than or equal to 3 fold but lower than 10 fold) | – | – | – | – | – | – | – | – |
| > 1000 | > 500 | > 1000 | > 500 | > 500 | – | – | Cc1cc(NC(=O)C(=O)N2C[C@H](C)CC[C@H]2c2cc[nH]n2)cnc1N (single isomer, unassigned) [Compound 1050] | C (an IC50 ratio of less than 3 fold) | – | – | – | – | – | – | – | – | – |
| < 100 | 50 to 500 | 100 to 1000 | 50 to 500 | 50 to 500 | – | – | Cc1cc(NC(=O)C(=O)N2C[C@H](C)CC[C@H]2c2ccc(NC3COC3)cc2)cnc1N (racemic) [Compound 1048] | B (an IC50 ratio greater than or equal to 3 fold but lower than 10 fold) | – | – | – | – | – | – | – | – | – |
| – | < 50 | 100 to 1000 | < 50 | 50 to 500 | < 100 | – | CCc1cc(NC(=O)C(=O)N2C[C@@H](C)CC[C@@H]2c2cc3cn[nH]c3s2)cnc1N (single isomer, unassigned) [Compound 1075] | – | A (an IC50 ratio greater than or equal to 10 fold) | – | – | – | – | – | – | – | – |
| – | > 500 | > 1000 | > 500 | > 500 | > 1000 | – | Cc1cc(NC(=O)C(=O)N2CCCC[C@@H]2C2CCCC2)cnc1N (single isomer, unassigned) [Compound 336] | C (an IC50 ratio of less than 3 fold) | – | – | – | – | – | – | – | – | – |
| < 100 | – | 100 to 1000 | – | 50 to 500 | – | < 50 | CCc1cc(NC(=O)C(=O)N2C[C@@H](C)CC[C@@H]2c2cccc([C@H]3CCCN(C)C3)c2)cnc1N (single isomer, unassigned) [Compound 1285] | A (an IC50 ratio greater than or equal to 10 fold) | – | – | – | < 1000 | – | – | – | – | – |
| < 100 | – | 100 to 1000 | 50 to 500 | 50 to 500 | – | – | CCc1cc(NC(=O)C(=O)N2C[C@@H](C)CC[C@@H]2c2ccc(N3CCN(C)CC3)c(Cl)c2)cnc1N (racemic) [Compound 1265, N-(6-Amino-5-ethyl-3-pyridyl)-2-oxo-2-[rac-(2R,5S)-2-[3-chloro-4-(4-methylpiperazin-1-yl)phenyl]-5-methyl-1-piperidyl]acetamide] | A (an IC50 ratio greater than or equal to 10 fold) | – | – | – | < 1000 | – | – | – | – | – |
| < 100 | – | 100 to 1000 | < 50 | 50 to 500 | – | – | COc1ncc(NC(=O)C(=O)N2C[C@@H](C)CC[C@@H]2c2cccc(N3CCN(C)CC3)c2)cc1C(N)=O [Compound 1277, 2-methoxy-5-(2-((2R,5S)-5-methyl-2-(3-(4-methylpiperazin-1-yl)phenyl)piperidin-1-yl)-2-oxoacetamido)nicotinamide] | A (an IC50 ratio greater than or equal to 10 fold) | – | – | – | < 1000 | – | – | – | – | – |

From US11999727B2 (Tango Therapeutics, Inc., priority 2020, dated 2024)
